Measurements published in EP0630648A1, “Use of acyl L-carnitine gamma-hydroxybutyrate for the treatment of drug addiction” (Sigma-Tau Industrie Farmaceutiche Riunite S.p.A., priority 1993, dated 1994).
Marks after values point to notes of the source that are not given here.

Each molecule was assayed on male Wistar rats (assay: Heroin self-administration behaviour in rats). Settings: 3rd day; in the space of 3 hours; 100 mg/kg daily intraperitoneal.

Going from `O=C(O)CCCO` [GHB, gamma-hydroxybutyric acid] to `CC(C)CC(=O)O[C@H](CC(=O)OCCCC(=O)[O-])C[N+](C)(C)C` [VCGB, isovaleryl L-carnitine gamma-hydroxybutyrate], the “number of heroin self-administrations” value falls from 7.5 ± 0.6 to 6.3 ± 0.5.

`CC(=O)OC(CC(=O)[O-])C[N+](C)(C)C` [LAC, acetyl L-carnitine] and `CC(C)CC(=O)O[C@H](CC(=O)[O-])C[N+](C)(C)C` [VC, isovaleryl L-carnitine] are within error of each other in “number of heroin self-administrations” value: 7.0 ± 0.5 for the first, 7.2 ± 0.5 for the second.

Same assay, conditions: 4th day; in the space of 3 hours; 100 mg/kg daily intraperitoneal

Compared with `O=C(O)CCCO` [GHB, gamma-hydroxybutyric acid], `CC(C)CC(=O)O[C@H](CC(=O)OCCCC(=O)[O-])C[N+](C)(C)C` [VCGB, isovaleryl L-carnitine gamma-hydroxybutyrate] is lower in “number of heroin self-administrations” value: 8.0 ± 0.7 for the first, 6.8 ± 0.4 for the second.

`CC(=O)OC(CC(=O)[O-])C[N+](C)(C)C` [LAC, acetyl L-carnitine] and `CC(C)CC(=O)O[C@H](CC(=O)[O-])C[N+](C)(C)C` [VC, isovaleryl L-carnitine] are within error of each other in “number of heroin self-administrations” value: 9.2 ± 0.5 for the first, 9.5 ± 0.5 for the second.

Same assay, conditions: 5th day; in the space of 3 hours; 100 mg/kg daily intraperitoneal

Going from `O=C(O)CCCO` [GHB, gamma-hydroxybutyric acid] to `CC(C)CC(=O)O[C@H](CC(=O)OCCCC(=O)[O-])C[N+](C)(C)C` [VCGB, isovaleryl L-carnitine gamma-hydroxybutyrate], the “number of heroin self-administrations” value falls from 9.0 ± 0.6 to 6.3 ± 0.5.

`CC(=O)OC(CC(=O)[O-])C[N+](C)(C)C` [LAC, acetyl L-carnitine] and `CC(C)CC(=O)O[C@H](CC(=O)[O-])C[N+](C)(C)C` [VC, isovaleryl L-carnitine] are within error of each other in “number of heroin self-administrations” value: 8.9 ± 0.8 for the first, 8.8 ± 0.5 for the second.

Same assay, conditions: summary of the table; 100 mg/kg daily intraperitoneal

`CC(C)CC(=O)O[C@H](CC(=O)OCCCC(=O)[O-])C[N+](C)(C)C` [VCGB, isovaleryl L-carnitine gamma-hydroxybutyrate] was tested, and the “effect on number of heroin self-administrations (in words)” value was “very long-lasting action in reducing the number of self-administrations”.

These molecules were tested on male Wistar rats (assay: Withdrawal syndrome due to naloxone administration in morphine-treated rats). Settings: mean loss of body weight 1 hour after naloxone injection (1 mg/kg subcutaneous); morphine for 10 days.
Format: in vivo
Method: After repeated treatment with morphine for a period of 10 days, the rats were all weighed and administered naloxone (1 mg/kg dissolved in saline solution) by subcutaneous injection. The resulting withdrawal syndrome was assessed by measuring the latency of onset of "stereotype jumps" from a circular platform measuring 35 cm in diameter and 70 cm in height. A cut-off time of 900 sec. was used. In 5 groups of animals, naloxone administration was combined with administration of saline, VCGB, GHB, LAC and VC, respectively.
The body weight of the animals was then measured again 1 hour after naloxone injection and the mean loss of body weight was calculated for each group of animals treated.

First: O=C(O)CCCO [GHB, gamma-hydroxybutyric acid]
Second: CC(C)CC(=O)O[C@H](CC(=O)OCCCC(=O)[O-])C[N+](C)(C)C [VCGB, isovaleryl L-carnitine gamma-hydroxybutyrate]
The Weight loss of the first is higher: 15.5 ± 0.6 g for the first, 12.3 ± 0.6 g for the second.

`CC(=O)OC(CC(=O)[O-])C[N+](C)(C)C` [LAC, acetyl L-carnitine] and `CC(C)CC(=O)O[C@H](CC(=O)[O-])C[N+](C)(C)C` [VC, isovaleryl L-carnitine] are within error of each other in Weight loss: 18.6 ± 2.1 g for the first, 16.6 ± 2.1 g for the second.

Same assay, conditions: morphine for 10 days, then naloxone 1 mg/kg subcutaneous; cut-off time 900 sec.

`O=C(O)CCCO` [GHB, gamma-hydroxybutyric acid] and `CC(C)CC(=O)O[C@H](CC(=O)OCCCC(=O)[O-])C[N+](C)(C)C` [VCGB, isovaleryl L-carnitine gamma-hydroxybutyrate] are within error of each other in “Latency of stereotype jumps” value: 451 ± 63 s for the first, 564 ± 69 s for the second.

`CC(=O)OC(CC(=O)[O-])C[N+](C)(C)C` [LAC, acetyl L-carnitine] and `CC(C)CC(=O)O[C@H](CC(=O)[O-])C[N+](C)(C)C` [VC, isovaleryl L-carnitine] are within error of each other in “Latency of stereotype jumps” value: 465 ± 99 s for the first, 480 ± 99 s for the second.

Each molecule was assayed on male Wistar rats (assay: Hot-plate test: onset of habituation to the analgesic action of morphine). Settings: T 0; after 15 days of daily morphine; substance 100 mg/kg i.p.; morphine 10 mg/kg i.p.; plate 51°C.
Format: in vivo
Method: Morphine addiction was induced in the rats by daily injections for a period of 15 days.
Five different groups of animals also received saline solution, VCGB, GHB, LAC or VC (100 mg/kg i.p.), respectively.

Compared with `O=C(O)CCCO` [GHB, gamma-hydroxybutyric acid], `CC(C)CC(=O)O[C@H](CC(=O)OCCCC(=O)[O-])C[N+](C)(C)C` [VCGB, isovaleryl L-carnitine gamma-hydroxybutyrate] is higher in mean latency: 5.5 s for the first, 6.5 s for the second.

`CC(=O)OC(CC(=O)[O-])C[N+](C)(C)C` [LAC, acetyl L-carnitine] and `CC(C)CC(=O)O[C@H](CC(=O)[O-])C[N+](C)(C)C` [VC, isovaleryl L-carnitine] are the same in mean latency: 6.0 s for the first, 6.0 s for the second.

Same assay, conditions: T 30; after 15 days of daily morphine; substance 100 mg/kg i.p.; morphine 10 mg/kg i.p.; plate 51°C

`O=C(O)CCCO` [GHB, gamma-hydroxybutyric acid] was tested, and the mean latency was 13.0* sec.
For `CC(=O)OC(CC(=O)[O-])C[N+](C)(C)C` [LAC, acetyl L-carnitine], the mean latency was 10.0* sec.
`CC(C)CC(=O)O[C@H](CC(=O)[O-])C[N+](C)(C)C` [VC, isovaleryl L-carnitine] was tested, and the mean latency was 10.0* sec.
In the case of `CC(C)CC(=O)O[C@H](CC(=O)OCCCC(=O)[O-])C[N+](C)(C)C` [VCGB, isovaleryl L-carnitine gamma-hydroxybutyrate], the mean latency was 14.0* sec.

Same assay, conditions: T 240; after 15 days of daily morphine; substance 100 mg/kg i.p.; morphine 10 mg/kg i.p.; plate 51°C

`O=C(O)CCCO` [GHB, gamma-hydroxybutyric acid] and `CC(C)CC(=O)O[C@H](CC(=O)[O-])C[N+](C)(C)C` [VC, isovaleryl L-carnitine] are the same in mean latency: 6.0 s for the first, 6.0 s for the second.

`CC(=O)OC(CC(=O)[O-])C[N+](C)(C)C` [LAC, acetyl L-carnitine] was tested, and the mean latency was 6.0 s.

With `CC(C)CC(=O)O[C@H](CC(=O)OCCCC(=O)[O-])C[N+](C)(C)C` [VCGB, isovaleryl L-carnitine gamma-hydroxybutyrate] the mean latency was 10.0* sec.

Same assay, conditions: summary of the table; 100 mg/kg i.p.

In the case of `CC(C)CC(=O)O[C@H](CC(=O)OCCCC(=O)[O-])C[N+](C)(C)C` [VCGB, isovaleryl L-carnitine gamma-hydroxybutyrate], the “effect on habituation to morphine-induced analgesia (in words)” value was “reduce habituation to morphine-induced analgesia to an appreciable extent”.
